Each structure is given as a SMILES string.

One assay has as its system normal iPSC BC1. Nature of the assay: in vitro megakaryocyte lineage differentiation of iPSC BC1 (spin-EB), flow cytometry at Day 14. In kind it is cell-based, human. The protocol:
BC1 cell line was cultured in E8 medium, under the culture condition of 37° C., 5% CO2, and was passaged at (1:5)-(1:10) every 3-4 days depending on the concentration of cells. The cells were incubated in 0.5 mM EDTA, at room temperature for 2 min, and then were re-suspended and split up and down with E8 medium, and transferred to a culture dish that had been coated with Vitronectin one hour before.
During differentiation, spin-embryoid body (spin-EB) method was used (Ng E S, Davis R, Stanley E G, Elefanty A G, A protocol describing the use of a recombinant protein-based, animal product-free medium (APEL) for human embryonic stem cell differentiation as spin embryoid bodies, Nat Protoc. 2008; 3(5): 768-76.). At Day 0 (D0) after differentiation, iPSCs reached a confluence of above 85% (confluence refers to the percentage of the surface of a culture dish that is covered by adherent cells). After digestion with Accutase at 37° C. for 3 min, the cells were neutralized and split in SFM medium (50% IMDM, 50% Ham's F12, and the added reagents and factors including: human albumin, monothioglycerol, Glutamax, Chemically Defined Lipid Concentrate, L-Ascorbic acid 2-phosphate sesquimagnesium salt hydrate, ITS-X), counted, and centrifuged. After the cells were re-suspended in SFM, cytokines, i.e. 10 μM ROCK inhibitor (Rho-associated protein kinase inhibitor), 10 ng/ml bFGF, and 10 ng/ml BMP4, were added. Cells were seeded to a round-bottom 96-well plate, at 3000 or 5000 cells/50 μl for each well (3000 or 5000 cells were seeded to each well, in a volume of 50 μl for each well). At Day 2, 50 μl SFM medium+10 ng/ml bFGF+10 ng/ml BMP4+100 ng/ml SCF+20 ng/ml VEGF was added to each well. At Day 5, Day 8, and Day 11, 50 μl SFM medium+10 ng/ml bFGF+10 ng/ml BMP4+50 ng/ml SCF+10 ng/ml VEGF was added to each well, wherein 100 μl old medium was pipetted off at Day 8, and 10 ng/ml thrombopoietin (TPO) was added to each well at Day 11.
At Day 14 (D14), single cells (suspending cells) surrounding embryoid bodies (EBs) were collected. The cells were used in the following flow cytometry.
The cell surface markers (CD34, CD45, CD41, CD42) of the collected cells were detected by flow cytometer. The assay was as followed.
The detection was carried out in four tubes: the first tube was a negative tube that was not labeled with any flow antibody; the second tube was labelled with two antibodies CD34-APC and CD45-PE; the third tube was labeled with CD34-APC and CD41-PE; and the fourth tube was labeled with CD41-PE and CD42-APC, wherein CD34^+CD45^+represented the population of hematopoietic stem/progenitor cells (HSPCs), CD34^+CD41^+ represented the population of megakaryocyte progenitor cells (MKPs), and CD41^+CD42^+ represented the population of mature megakaryocytes (MKs).
(1) The BC1 cell line used was the same as the one used in Example 1, and was divided into three groups, wherein two 96-well plates were used for each group, and the cells were seeded at 5000 cells/50 μl to each well. In vitro differentiation was carried out by reference to the steps in Example 1, wherein the step of adding a drug was carried out in accordance with the following steps in I-III groups:
I. At Day 0 after differentiation, 10 μM RO4929097 was added, and DMSO was added to the control well.
III. At Day 2 after differentiation, 10 μM RO4929097, 10 μM L-685458, and 10 μM DAPT were added, respectively; in addition, at Day 5 after differentiation, 10 μM RO4929097, 10 μM L-685458, and 10 μM DAPT were added, respectively.
(2) The cells were collected for flow cytometry analysis, and as to the steps, please refer to the Example 1 above. […]
I. At Day 0 after differentiation, 10 μM RO4929097, and 10 μM DAPT were added, respectively.
II. At Day 2 after differentiation, 10 μM RO4929097, and 10 μM DAPT were added, respectively.
III. At Day 5 after differentiation, 10 μM RO4929097, and 10 μM DAPT were added, respectively.
IV. […]

Assay [1] relates to umbilical cord blood-derived CD34+ cells. Description: in vitro megakaryocyte lineage differentiation of umbilical cord blood-derived CD34+ cells, flow cytometry. It counts as cell-based, human. The following applies: 10 μM; cells collected at D14; FIG. 14. The procedure: (1) CD34^+ cells in umbilical cord blood were obtained by Ficoll-Paque PLUS density gradient centrifugation and magnetic bead sorting using CD34 MicroBead Kit. As to the particular steps, please refer to (GE Healthcare Life Sciences, http://www.gelifesciences.com), (Miltenyi Biotec, http://www.miltenyibiotec.com.cn).
(2) Differentiation of umbilical cord blood-derived CD34^+ cells into megakaryocytes: umbilical cord blood-derived CD34^+ cells were counted, and seeded at 1*10^6 cells to 4 ml StemSpan™ SFEM 11+50 ng/ml SCF+50 ng/ml TPO+50 ng/ml IL-6+20 ng/ml IL-3 in a 12-well plate, with 1 ml medium for each well, and four wells in total, to which 10 μM R04929097, 10 μM L-685458, 10 μM DAPT, and the same volume of DMSO as control were added, respectively, and the time was recorded as Day 0. The liquid was changed every 3 days, and the culture condition was 37° C., 5% CO2. After incubation for 6 days, the cell density was high, and the cells in each well were divided into two wells of a 12-well plate, with 2 ml medium for each well. The inhibitors were added at the same concnetrations as described above. The cells were collected at D14, counted, and detected for cell surface markers (CD41, CD42, CD61) by flow cytometer.
As to the collection of umbilical cord blood-derived CD34^+ cells, in vitro megakaryocytic differentiation and detection, please refer to Example 4-1.
A general note: In flow cytometry, cells or beads pass a laser one at a time.

Take `CC(C)C[C@H](NC(=O)[C@H](Cc1ccccc1)C[C@@H](O)[C@H](Cc1ccccc1)NC(=O)OC(C)(C)C)C(=O)N[C@@H](Cc1ccccc1)C(N)=O` [L-685458]: in the assay on normal iPSC BC1 (5 μM added at Day 2, FIG. 6), the “increase of proportion of mature megakaryocytes produced vs DMSO control” value was found to be 21%. Moreover, in the assay with normal iPSC BC1 (10 μM added at Day 2, FIG. 7A), the “decrease of proportion of HSPCs (CD34+CD45+) vs DMSO control” value was 27%; the “proportion of MKPs (CD34+CD41+) produced, increased fold vs DMSO control (set as 1)” value is “about 1.5 folds”; the “proportion of mature megakaryocytes MKs (CD41+CD42+) produced, increased fold vs DMSO control (set as 1)” value is “about 2.3 folds”. In the assay with normal iPSC BC1 (10 μM added at Day 5, FIG. 7B), the “proportion of HSPCs produced, increased fold vs DMSO control (set as 1)” value is listed as “about 1.5 folds”; the “proportion of MKPs produced, increased fold vs DMSO control (set as 1)” value is on record as “about 1.2 folds”; the “proportion of mature megakaryocytes MKs produced, increased fold vs DMSO control (set as 1)” value is “about 3.8 folds”; the “total number of hematopoietic cells, increase vs control group” value worked out at 2.3 folds. For the same compound, the “production of megakaryocyte progenitor cells and/or mature megakaryocytes in vitro” value in the assay on normal iPSC BC1 (screen in the in vitro differentiation system of stem cells) is on record as “significantly promote”. Also, in assay [1], the “proportion of mature megakaryocyte (CD61+), increase vs control group” value was determined as 2.4 folds and the “proportion of mature megakaryocytes MK (CD41+CD42+) produced, increase vs control group” value worked out at 2.3 folds.

The record behind these values is patent US20200022998A1, “MEDICAL USE OF NOTCH4 OR INHIBITORS THEREOF” (BEIJING INSTITUTE OF GENOMICS, CHINESE ACADEMY OF SCIENCES, priority 2016, published 2020).
